Source: the supplement of paper PMC7695840
Where “and” joins values, the source holds several entries; their conditions need not be identical. Equal entries are not always repeated. Structures can show the parent of a compound that is named as a salt.

What was measured:
[1] = test system: Staphylococcus aureus MW2 (mecA+); assay: IC50 (growth, competition assay); details: cefoxitin: subinhibitory
Summary of the method: (§1)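 Pre-induced, 1:1-mixed fluorescent S. aureus MW2 mecA+ and ΔmecA strains were grown 20 h at 37 °C, 90% humidity, unshaken, in LB with a daily-set subinhibitory cefoxitin dose, in 1536-well plates. Compounds were given on five- or nine-point 2-fold gradients, in two dye-swapped replicates. DsRed (540/590) and GFP (485/520) were scaled per plate between single-strain control medians, with No Treatment then set to 0.5. Per-strain IC50 was the dose halving the No Treatment signal, or the maximal signal.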

[2] = test system: Staphylococcus aureus MW2 delta-mecA (mecA-); assay: IC50 (growth, competition assay); details: cefoxitin: subinhibitory
Summary of the method: as §1

SMILES | IC50 ([1]; fluorescent label: DsRed) | IC50 ([1]; fluorescent label: GFP) | IC50 ([2]; fluorescent label: DsRed) | IC50 ([2]; fluorescent label: GFP)
O=C1C(SCCO)=C(SCCO)C(=O)c2ccccc21 | 11.8 µM | 16.3 µM | < 9.85 µM | < 9.85 µM
O=C1NC(=O)/C(=C/c2ccc(-c3ccc(F)cc3O)o2)S1 | < 9.85 µM | < 9.85 µM and 13.8 µM | < 9.85 µM | < 9.85 µM
O=S(=O)(c1ccccc1)N(CC(F)(F)F)c1ccc(C(O)(C(F)(F)F)C(F)(F)F)cc1 | 24.6 µM | 29.6 µM | < 9.85 µM | < 9.85 µM
OCc1ccc(-c2ccc(-c3ccc(CO)s3)o2)s1 | 22.4 µM | 33.5 µM | < 9.85 µM | < 9.85 µM
O[C@@H](COc1cccc2ncccc12)CN1CCN([C@@H]2c3ccccc3[C@@H]3[C@H](c4ccccc42)C3(F)F)CC1 | 52.2 µM | 42.5 µM | 14.3 µM | < 9.85 µM
c1ccc2c(CCNc3ccc(Nc4ccncc4)cc3)c[nH]c2c1 | 104 µM | 138 µM | 61 µM | 37.1 µM
C[N+](C)(C)CC(O)CC(=O)[O-] (racemic) [DL-Carnitine hydrochloride] | > 150 µM | > 150 µM | > 150 µM | 139 µM
CCCCCCCCCCCCCCC[C@H](O)[C@H](N)CO (racemic) [DL-erythro-Dihydrosphingosine] | 15.1 µM | 10.4 µM | < 9.85 µM | < 9.85 µM
CCCCCCCCCCCCCCCC(=O)OC(CC(=O)O)C[N+](C)(C)C (racemic) [Palmitoyl-DL-Carnitine chloride] | 12.1 µM | 14.3 µM | < 9.85 µM | < 9.85 µM
CN(C)C[C@H](O)Cn1c2ccc(Br)cc2c2cc(Br)ccc21 (racemic) [Wiskostatin] | 17.6 µM | 20.5 µM | < 9.85 µM | < 9.85 µM
CCCc1c(-c2ccc(O)cc2)nn(-c2ccc(O)cc2)c1-c1ccc(O)cc1 [1,3,5-tris(4-hydroxyphenyl)-4-propyl-1H-pyrazole] | 12.5 µM | 20.3 µM | < 9.85 µM | < 9.85 µM
O=C(/C=C/c1ccccc1)c1ccc(O)cc1O [2',4'-DIHYDROXYCHALCONE] | 91.7 µM | 111 µM | 18.7 µM | 17.1 µM
O=C(C=Cc1ccc(O)cc1)c1ccccc1O [2',4-DIHYDROXYCHALCONE] | 40.6 µM | 58 µM | 26.7 µM | 23.8 µM
c1ccc2c(Cc3c[nH]c4ccccc34)c[nH]c2c1 [3,3'-DIINDOLYLMETHANE] | 67.4 µM | 105 µM | 21.7 µM | 21.4 µM
O=C(/C=C/c1ccccc1)c1ccc(O)cc1 [4'-HYDROXYCHALCONE] | 77.3 µM | 101 µM | 19.7 µM | 19.6 µM
C=CC(C1=CC(=O)C(OC)=CC1=O)c1ccccc1 (stereo unspecified) [4-METHOXYDALBERGIONE] | 59.4 µM | 63.4 µM | < 9.85 µM | 13.3 µM
O=C(O)c1ccc(N2C(=O)/C(=C\c3ccc(-c4ccc([N+](=O)[O-])cc4)o3)C=C2c2ccccc2)cc1 [4E1RCat] | 54.5 µM | 78.7 µM | 18 µM | < 9.85 µM

SMILES | IC50 ([1]; fluorescent label: DsRed) | IC50 ([1]; fluorescent label: GFP) | IC50 ([2]; fluorescent label: DsRed) | IC50 ([2]; fluorescent label: GFP)
NC(N)=NC(=O)c1nc(Cl)c(N2CCCCCC2)nc1N [5-(N,N-hexamethylene)amiloride] | 90.9 µM | 108 µM | 46.2 µM | 60.9 µM
O=c1[nH]cc(F)c(=O)[nH]1 [5-Fluorouracil] | < 9.85 µM | < 9.85 µM | < 9.85 µM | < 9.85 µM
CC1OC(n2cc(F)c(=O)[nH]c2=O)C(O)C1O (stereo unspecified) [5-fluoro-5'-deoxyuridine] | < 9.85 µM | < 9.85 µM | < 9.85 µM | < 9.85 µM
CC(C)c1cccc(C(C)C)c1N1C(=O)c2ccc(O)cc2C1=O [5HPP-33] | 25.8 µM | 111 µM | 40.7 µM | < 9.85 µM
O=Nc1ccc2oc(=O)ccc2c1 [6-Nitroso-1,2-benzopyrone] | 53.1 µM | 57.9 µM | 31 µM | 32.1 µM
CC(C)c1ccc2c(c1)CC[C@H]1[C@](C)(CN)CCC[C@]21C [18-AMINOABIETA-8,11,13-TRIENE SULFATE] | 62.5 µM | 79.2 µM | 55.7 µM | 55.8 µM
CC(C)c1c(O)ccc2c1CC[C@H]1[C@@](C)(CO)CCC[C@]21C [19-HYDROXYTOTAROL] | 77.4 µM | 111 µM | 107 µM | 65.8 µM
Cc1sc2c(c1C)C(c1ccc(Cl)cc1)=N[C@@H](CC(=O)OC(C)(C)C)c1nnc(C)n1-2 [(+)-JQ1] | 96.8 µM | 112 µM | 47 µM | 35.2 µM
O=C(O[C@@H]1Cc2c(O)cc(O)cc2O[C@@H]1c1cc(O)c(O)c(O)c1)c1cc(O)c(O)c(O)c1 [(-)-Epigallocatechin gallate] | 27.4 µM and 17.3 µM | 29.7 µM and 46.5 µM | 4.65 µM and < 9.85 µM | 3.45 µM and < 9.85 µM
CN1CCN(C2Cc3ccccc3Sc3ccc(Cl)cc32)CC1 (stereo unspecified) [(?)-Octoclothepin maleate] | 73.8 µM | 61.8 µM | < 9.85 µM | 29.3 µM
C[C@H](Oc1cc(-c2cnn(C3CCNCC3)c2)cnc1N)c1c(Cl)ccc(F)c1Cl [(S)-crizotinib] | 75 µM | 101 µM | < 9.85 µM | < 9.85 µM
CCOC(=O)[C@H](CCc1ccccc1)N[C@@H](C)C(=O)N1Cc2ccccc2C[C@H]1C(=O)O [ACCUPRIL] | > 150 µM | > 150 µM | > 150 µM | > 150 µM
CC(=O)Oc1c2c(c(CC=C(C)C)c3c1C(=O)C1=C[C@@H]4CC5C(C)(C)OC(C/C=C(\C)C(=O)O)(C4=O)[C@@]15O3)OC(C)(CCC=C(C)C)C=C2 (stereo partly specified) [ACETYL ISOGAMBOGIC ACID] | 13.5 µM | 17.2 µM | < 9.85 µM | < 9.85 µM
NC(=O)N/N=C/c1ccc([N+](=O)[O-])o1 [ACTIN-N] | 16.2 µM | 15 µM | 10.5 µM | < 9.85 µM
CCCCC[C@H](CC(=O)NO)C(=O)N[C@H](C(=O)N1CCC[C@H]1CO)C(C)C [ACTINONIN] | 27.8 µM | 37.7 µM | < 9.85 µM | < 9.85 µM
CC1CCc2c(N3CCC(O)CC3)c(F)cc3c(=O)c(C(=O)O)cn1c23 (stereo unspecified) [ACUATIM] | < 9.85 µM | < 9.85 µM | < 9.85 µM | < 9.85 µM
CCCCCCCCCCCCCCCCC(C(=O)O)C(O)(CC(=O)O)C(=O)O (stereo unspecified) [AGARIC ACID] | 12.8 µM | 20.6 µM | < 9.85 µM | < 9.85 µM
